In PMC12030627, “Radioiodinated Bicyclic RGD Peptide Derivatives for Enhanced Tumor Accumulation” (Pharmaceuticals, 2025):
Like-named read-outs stand apart in the source and are kept apart here.

What was measured:
[1] = Biodistribution in A549 and U-87 MG co-implantation mice; format: in vivo, BALB/c nu-nu mice; details: male, BALB/c nu-nu, mouse, iv, 37 kBq, total radioactivity, U-87 MG and A549 co-implanted mice, mean ± SD, n = 4
Description: (§1) Animal experiments were performed in compliance with institutional animal care regulations, with the study protocol approved by the Experimental Animal Committee of Osaka Medical and Pharmaceutical University (Approval Numbers: 21–76, 22–76, and 23–76). Four-week-old male BALB/c nu-nu mice (Japan SLC, Shizuoka, Japan) were housed under a 12 h light/12 h dark cycle with free access to food and water. Tumor-bearing mice were established by suspending U-87 MG cells (2 × 10^6 cells/mouse) in PBS(–) and subcutaneously injecting 100 μL of the suspension into the right hind leg. For co-implantation models, A549 cells (2 × 10^6 cells/mouse) were suspended in PBS(–) and inoculated (100 μL) into the left hind leg of the same mice already inoculated with U-87 MG cells. Mice with tumor size approximately 10 mm in diameter, 4–5 weeks after inoculation, were used for biodistribution studies. Animals in which either tumor was not viable were excluded from the experiment.
(§2) U-87 MG-bearing mice (n = 42, 8–9 weeks old; 22–27 g) were randomly assigned into groups and administered [^125I]bcRGDpal or [^125I]bcRGDiba via intravenous injection (37 kBq in 100 μL of PBS containing 0.1% Tween 80 (PBS-T80)). At 5 min, 30 min, 1 h, 2 h, 6 h, 12 h, or 24 h post-injection, the mice were euthanized (n = 3 per time point). The heart, kidneys, liver, brain, pancreas, spleen, lung, small intestine, large intestine, muscle, skin, stomach, bone, and tumors were excised. Each organ’s weight and radioactivity were measured by a NaI well-type scintillation counter, and the % ID/g was calculated. To investigate the correlation between integrin expression and radioactivity accumulation, biodistribution at 2 h after administration of [^125I]bcRGDpal or [^125I]bcRGDiba was assessed in A549 and U-87 MG co-implantation mice (n = 5) using the same procedure. Additionally, co-implantation mice were injected with [^125I]bcRGDdimer (37 kBq/100 μL PBS-T80) and euthanized at 30 min, 2 h, and 4 h post-injection (n = 4 per time point), and % ID/g values were calculated as described above. The minimum sample size needed for the biodistribution study in U-87 MG-bearing mice was calculated using G Power software version 3.1.9.7. The calculation was based on a two-tailed test, with an effect size of 3.9, a significance level (α) of 0.05, and a statistical power (1 − β) of 0.8. […] The minimum required sample size for the biodistribution study in A549 and U-87 MG co-implantation mice was also calculated to be four animals per group (effect size = 2.5, α = 0.05, 1 − β = 0.8). To guarantee objective results, the experiment was carried out in a blinded manner. Specifically, drug administration and radioactivity measurements were conducted by different investigators to eliminate potential bias.

[2] = tested on: A549 and U-87 MG co-implantation mice; assay: as above; format: in vivo, BALB/c nu-nu mice
Description: as §1, §2

[3] = 30 min after i.v. administration, U-87 MG and A549 co-implanted mice, mean ± SD, n = 4
[4] = 2 h after i.v. administration, U-87 MG and A549 co-implanted mice, mean ± SD, n = 4
[5] = 4 h after i.v. administration, U-87 MG and A549 co-implanted mice, mean ± SD, n = 4

Compound: N=C(N)NCCC[C@@H]1NC(=O)[C@H]2CSCc3cc(cc(c3)CSC[C@H](C(N)=O)NC(=O)[C@H](CC(=O)O)NC(=O)CNC1=O)CSC[C@H](NC(=O)CNC(=O)[C@H](CO)NC(=O)c1ccc(NC(=O)CNC(=O)[C@H](CO)NC(=O)[C@@H]3CCCN3C(=O)[C@@H]3CCCN3C(=O)[C@@H]3CCCN3C(=O)CCc3cn(CC[C@H](NC(=O)CCNC(=O)c4cccc(I)c4)C(=O)N4CCC[C@H]4C(=O)N4CCC[C@H]4C(=O)N4CCC[C@H]4C(=O)N[C@@H](CO)C(=O)NCC(=O)Nc4ccc(C(=O)N[C@@H](CO)C(=O)NCC(=O)N[C@H]5CSCc6cc7cc(c6)CSC[C@@H](NC(=O)[C@H](CCC(N)=O)NC(=O)[C@@H]6CCCN6C(=O)[C@H](Cc6c[nH]cn6)NC5=O)C(=O)N[C@@H](CCCNC(=N)N)C(=O)NCC(=O)N[C@@H](CC(=O)O)C(=O)N[C@@H](C(N)=O)CSC7)cc4)nn3)cc1)C(=O)N[C@@H](Cc1c[nH]cn1)C(=O)N1CCC[C@H]1C(=O)N[C@@H](CCC(N)=O)C(=O)N2 [[^125I]bcRGDdimer]
- tissue uptake at 0.5 h ([1]; A549 tumor, 30 min after i.v. administration, read-out: Radioactivity in A549 tumor): 1.7 ± 0.6 %ID/g
- tissue uptake at 2 h ([1]; A549 tumor, 2 h after i.v. administration, read-out: Radioactivity in A549 tumor): 0.8 ± 0.2 %ID/g
- tissue uptake at 4 h ([1]; A549 tumor, 4 h after i.v. administration, read-out: Radioactivity in A549 tumor): 0.4 ± 0.1 %ID/g
- tissue uptake at 0.5 h ([1]; U-87 MG tumor, 30 min after i.v. administration, read-out: Radioactivity in U-87 MG tumor): 7.5 ± 0.8 %ID/g
- tissue uptake at 2 h ([1]; U-87 MG tumor, 2 h after i.v. administration, read-out: Radioactivity in U-87 MG tumor): 4.2 ± 1.1 %ID/g
- tissue uptake at 4 h ([1]; U-87 MG tumor, 4 h after i.v. administration, read-out: Radioactivity in U-87 MG tumor): 2.9 ± 0.4 %ID/g
- tissue uptake at 2 h ([1]; blood, 2 h after i.v. administration, read-out: Radioactivity in blood): 0.3 %ID/g
- tissue uptake at 0.5 h ([1]; bone, 30 min after i.v. administration, read-out: Radioactivity in bone): 1.5 ± 0.3 %ID/g
- tissue uptake at 2 h ([1]; bone, 2 h after i.v. administration, read-out: Radioactivity in bone): 0.9 ± 0.3 %ID/g
- tissue uptake at 4 h ([1]; bone, 4 h after i.v. administration, read-out: Radioactivity in bone): 0.4 %ID/g
- tissue uptake at 0.5 h ([1]; brain, 30 min after i.v. administration, read-out: Radioactivity in brain): 0.1 %ID/g
- tissue uptake at 0.5 h ([1]; heart, 30 min after i.v. administration, read-out: Radioactivity in heart): 0.6 ± 0.1 %ID/g
- tissue uptake at 2 h ([1]; heart, 2 h after i.v. administration, read-out: Radioactivity in heart): 0.2 %ID/g
- tissue uptake at 4 h ([1]; heart, 4 h after i.v. administration, read-out: Radioactivity in heart): 0.1 %ID/g
- tissue uptake at 0.5 h ([1]; kidneys, 30 min after i.v. administration, read-out: Radioactivity in kidneys): 10.9 ± 2.6 %ID/g
- tissue uptake at 2 h ([1]; kidneys, 2 h after i.v. administration, read-out: Radioactivity in kidneys): 2 ± 0.2 %ID/g
- tissue uptake at 4 h ([1]; kidneys, 4 h after i.v. administration, read-out: Radioactivity in kidneys): 0.9 ± 0.2 %ID/g
- tissue uptake at 0.5 h ([1]; large intestine, 30 min after i.v. administration, read-out: Radioactivity in large intestine): 0.4 ± 0.2 %ID/g
- tissue uptake at 2 h ([1]; large intestine, 2 h after i.v. administration, read-out: Radioactivity in large intestine): 5.5 ± 1 %ID/g
- tissue uptake at 4 h ([1]; large intestine, 4 h after i.v. administration, read-out: Radioactivity in large intestine): 5.5 ± 1.4 %ID/g
- tissue uptake at 0.5 h ([1]; liver, 30 min after i.v. administration, read-out: Radioactivity in liver): 0.9 ± 0.1 %ID/g
- tissue uptake at 2 h ([1]; liver, 2 h after i.v. administration, read-out: Radioactivity in liver): 0.5 ± 0.1 %ID/g
- tissue uptake at 4 h ([1]; liver, 4 h after i.v. administration, read-out: Radioactivity in liver): 0.3 ± 0.1 %ID/g
- tissue uptake at 0.5 h ([1]; lung, 30 min after i.v. administration, read-out: Radioactivity in lung): 2.9 ± 0.5 %ID/g
- tissue uptake at 2 h ([1]; lung, 2 h after i.v. administration, read-out: Radioactivity in lung): 1.2 ± 0.3 %ID/g
- tissue uptake at 4 h ([1]; lung, 4 h after i.v. administration, read-out: Radioactivity in lung): 0.4 ± 0.1 %ID/g
- tissue uptake at 0.5 h ([1]; muscle, 30 min after i.v. administration, read-out: Radioactivity in muscle): 0.7 ± 0.1 %ID/g
- tissue uptake at 2 h ([1]; muscle, 2 h after i.v. administration, read-out: Radioactivity in muscle): 0.2 %ID/g
- tissue uptake at 4 h ([1]; muscle, 4 h after i.v. administration, read-out: Radioactivity in muscle): 0.1 %ID/g
- tissue uptake at 0.5 h ([1]; pancreas, 30 min after i.v. administration, read-out: Radioactivity in pancreas): 0.5 ± 0.1 %ID/g
- tissue uptake at 2 h ([1]; pancreas, 2 h after i.v. administration, read-out: Radioactivity in pancreas): 0.2 ± 0.1 %ID/g
- tissue uptake at 4 h ([1]; pancreas, 4 h after i.v. administration, read-out: Radioactivity in pancreas): 0.1 %ID/g
- tissue uptake at 0.5 h ([1]; small intestine, 30 min after i.v. administration, read-out: Radioactivity in small intestine): 3.6 ± 0.6 %ID/g
- tissue uptake at 2 h ([1]; small intestine, 2 h after i.v. administration, read-out: Radioactivity in small intestine): 2.3 ± 1 %ID/g
- tissue uptake at 4 h ([1]; small intestine, 4 h after i.v. administration, read-out: Radioactivity in small intestine): 1.6 ± 0.4 %ID/g
- tissue uptake at 0.5 h ([1]; spleen, 30 min after i.v. administration, read-out: Radioactivity in spleen): 0.7 ± 0.2 %ID/g
- tissue uptake at 2 h ([1]; spleen, 2 h after i.v. administration, read-out: Radioactivity in spleen): 0.3 ± 0.1 %ID/g
- tissue uptake at 4 h ([1]; spleen, 4 h after i.v. administration, read-out: Radioactivity in spleen): 0.2 %ID/g
- tissue uptake dose at 0.5 h ([1]; stomach, 30 min after i.v. administration): 0.6 ± 0.5 %ID
- tissue uptake dose at 2 h ([1]; stomach, 2 h after i.v. administration): 0.2 %ID
- tissue uptake dose at 4 h ([1]; stomach, 4 h after i.v. administration): 0.3 ± 0.3 %ID
- tissue uptake at 0.5 h ([1]; whole blood, 30 min after i.v. administration, read-out: Radioactivity in blood): 1.1 ± 0.1 %ID/g
- tissue uptake at 2 h ([1]; whole blood, 2 h after i.v. administration, read-out: Radioactivity in blood): 0.3 ± 0.1 %ID/g
- tissue uptake at 4 h ([1]; whole blood, 4 h after i.v. administration, read-out: Radioactivity in blood): 0.2 ± 0.1 %ID/g
- Radioactivity in thyroid [2, 3]: 0.0 ± 0.0 % injected dose
- U87/Muscle radioactivity ratio [2, 3]: 7.1 ± 1.8
- Radioactivity in brain [2, 4]: 0.0 ± 0.0 % injected dose per gram of tissue
- Radioactivity in thyroid [2, 4]: 0.0 ± 0.0 % injected dose
- U87/Blood radioactivity ratio [2, 4]: 22
- U87/Muscle radioactivity ratio [2, 4]: 13.9 ± 6.8
- Lung-to-blood radioactivity ratio ([2]; 2 h post-administration): 3.7
- Accumulation ratio U87/A549 ([2]; 2 h post-administration, co-implanted mice): 5.4
- Radioactivity in brain [2, 5]: 0.0 ± 0.0 % injected dose per gram of tissue
- Radioactivity in thyroid [2, 5]: 0.0 ± 0.0 % injected dose
- U87/Muscle radioactivity ratio [2, 5]: 10.3 ± 2.5
